Reference: patent US6031073A, “Cyclic polypeptides comprising a thioether linkage and methods for their preparation” (La Jolla Pharmaceutical Company, priority 1997, dated 2000)
Where two headings read alike, the source gives them in different places. Numbered stars: 1 amine (or outer) side, 2 acyl side, 3 side chain; on linkers, the order of the positions; unused ones are H or OH. Bridge positions count the residues as written; N and C are the ends. Square brackets hold non-standard residues; d marks the D form. Peptide text beside a SMILES is read from it. Abu(4-yl) = O=C([C@H](CC[*:3])N[*:1])[*:2]

Assays:
[1] = thioether bond
[2] = target: anticardiolipin antibody (serum of patient ACA-6501); assay: competitive ELISA, binding of patient ACA-6501 serum to cardiolipin/β2-GPI coated plate; set-up: species or system human; details: amount of peptide that inhibited the human serum's binding by 50%; serum of patient ACA-6501 (GPL score 1500)
Method: The binding affinities of a number of the thioether cyclic polypeptides of the present invention to anticardiolipin antibody were determined by a competitive ELISA (i.e., enzyme-linked immunosorbent assay) and compared with binding affinities of the corresponding disulfide cyclic polypeptides (e.g., 3G3, 2G3, and G3).
Of 96 wells of a flat-bottom Immulon I microtiter plate (Dynatech Labs, Alexandria, Va.), 94 wells were coated with […] cardiolipin per well in 30 mL, of ethanol. The remaining two wells were used as controls and each received 30 mL, of ethanol. After overnight evaporation at 4° C., the plate was blocked for 2 hours at room temperature with 200 mL of 5% (w/v) fish gelatin in phosphate buffered saline (i.e., PBS, 0.15 M NaCl and 0.01 M Na2 HPO4 at pH 7.2). The plate was washed five times in Tris buffered saline (i.e., TBS, 0.15 M NaCl and 0.05 M Tris-HCl at pH 8.5). Then, β2 -glycoprotein I (i.e., β2 -GPI) was added as […] of 2.3% (v/v) IgG-depleted human serum (Sigma Chemical Co.) and incubated for 2 hours at room temperature.
During this incubation, peptide solutions (around 2 mg/mL) were prepared by dissolving thioether cyclic peptides in 3% fish gelatin in TBS. The serums of patient ACA-6501, who has a GPL (i.e., IgG Phospholipid) score of 1500, and patient ACA-6701, who has a GPL score of 102, were diluted about 40-fold in 3% fish gelatin in TBS-PBS (1:1). Variable amounts of each of peptides were combined with 22 mL of each of the diluted human serums and then made up to the final volume of 220 mL with 3% fish gelatin in TBS-PBS (1:1). For each peptide, at least four peptide concentrations were employed and each data point was determined in duplicate.
After 5 washes with TFBS, 100 mL of the peptide/human serum solution was added and the microplate was agitated at 40 rpm in an orbital shaker (American Scientific, Rotator V) for one hour at room temperature. The plate was washed extensively with TBS (5 times) and 100 mL of diluted (1/1000) alkaline phosphatase-conjugated goat anti-human IgG (Zymed, South San Francisco, Calif.) in 0.5% (w/v) BSA-TBS was added to each well (i.e., bovine serum albumin, BSA). The plate was then incubated for one hour at room temperature followed by addition of […]/well of PPMP solution (3 g/L phenolphthalein monophosphate plus 26.7 g/L 2-amino-2-methyl-1-propanol in water). The plate was allowed to develop at room temperature for 21 min and the reaction was stopped by adding 50 mL of 0.2 M Na2 HPO4 (Mallinckrodt) to each well. Blanks consisted of protein-coated wells that received similar treatment except human serum was not added to these wells. The plate was read at 550 nm using a microplate reader (Bio-Tek Instruments, Model EL 311).
Absorbance vs. amount of peptide added was plotted using Graph Pad Prism (Graph Pad Software, Inc.). The amount of peptide that inhibited the human serum's binding by 50%, known as IC50, was calculated from the graph at the intersection of half-maximal absorbance with amount of peptide added.

[3] = from H-Gly-Pro-Ala(3-Cl)-Leu-Gly-Val-Leu-Gly-Lys-Leu-Hcy-Pro-Gly-OH, 29-membered ring, Na2CO3 (1 mg/mL, pH 10.5), ACN/H2O 1:1, 25.0 °C

CC(C)C[C@@H]1NC(=O)[C@H](CCCCN)NC(=O)CNC(=O)[C@H](CC(C)C)NC(=O)[C@H](C(C)C)NC(=O)CNC(=O)[C@H](CC(C)C)NC(=O)[C@@H](N)CSCC[C@@H](C(N)=O)NC1=O [G3-METE]
ring closure, yield after HPLC ([1]; from H-Ala(3-Cl)-Leu-Gly-Val-Leu-Gly-Lys-Leu-Hcy-NH2, 29-membered ring, Na2CO3 (1 mg/mL, pH 10.5), ACN/H2O 1:1, 25.0 °C): 52%

CC(C)C[C@@H]1NC(=O)[C@@H](NC(=O)[C@@H]2CCCN2C(=O)CNC(=O)[C@H](C)N)CCSC[C@@H](C(=O)N2CCC[C@H]2C(=O)NCC(=O)O)NC(=O)[C@H](CC(C)C)NC(=O)[C@H](CCCCN)NC(=O)CNC(=O)[C@H](CC(C)C)NC(=O)[C@H](C(C)C)NC(=O)CNC1=O [3G3-EMTE]
ring closure, yield after HPLC ([1]; from H-Ala-Gly-Pro-Abu(4-Cl)-Leu-Gly-Val-Leu-Gly-Lys-Leu-Cys-Pro-Gly-OH, 29-membered ring, Na2CO3 (1 mg/mL, pH 10.5), ACN/H2O 1:1, 0.71 mM, 25.0 °C): 94%

CC(C)C[C@@H]1NC(=O)[C@@H](NC(=O)[C@@H]2CCCN2C(=O)CNC(=O)[C@H](C)N)CCSC[C@@H](C(=O)N2CCC[C@H]2C(=O)NCC(=O)O)NC(=O)[C@H](CC(C)C)NC(=O)[C@H](CCCCN)NC(=O)CNC(=O)[C@H](CC(C)C)NC(=O)[C@H](C(C)C)NC(=O)CNC1=O [3G3-EMTE] (H-AGP[Abu(4-yl)]LGVLGKLCPG-OH; thioether 4-12; N-terminus and C-terminus assumed)
IC50 [2]: ~1120 µM

CC(C)C[C@@H]1NC(=O)[C@H](CCCCN)NC(=O)CNC(=O)[C@H](CC(C)C)NC(=O)[C@H](C(C)C)NC(=O)CNC(=O)[C@H](CC(C)C)NC(=O)[C@@H](N)CCSCC[C@@H](C(N)=O)NC1=O [G3-EETE]
ring closure, yield after HPLC ([1]; from H-Abu(4-Cl)-Leu-Gly-Val-Leu-Gly-Lys-Leu-Hcy-NH2, 30-membered ring, Na2CO3 (1 mg/mL, pH 10.5), ACN/H2O 1:1, 25.0 °C): 48%

CC(C)C[C@@H]1NC(=O)[C@@H](NC(=O)[C@@H]2CCCN2C(=O)CN)CSCC[C@@H](C(=O)N2CCC[C@H]2C(=O)NCC(=O)O)NC(=O)[C@H](CC(C)C)NC(=O)[C@H](CCCCN)NC(=O)CNC(=O)[C@H](CC(C)C)NC(=O)[C@H](C(C)C)NC(=O)CNC1=O [d-2G3-METE]
ring closure, yield after HPLC [1, 3]: 16%

CC(C)C[C@@H]1NC(=O)[C@H](CCCCN)NC(=O)CNC(=O)[C@H](CC(C)C)NC(=O)[C@H](C(C)C)NC(=O)CNC(=O)[C@H](CC(C)C)NC(=O)[C@@H](N)CCSC[C@@H](C(N)=O)NC1=O [G3-EMTE]
ring closure, yield after HPLC ([1]; from H-Abu(4-Cl)-Leu-Gly-Val-Leu-Gly-Lys-Leu-Cys-NH2, 29-membered ring, Na2CO3 (1 mg/mL, pH 10.5), ACN/H2O 1:1, 25.0 °C): 51%

CC(C)C[C@@H]1NC(=O)[C@@H](NC(=O)[C@@H]2CCCN2C(=O)CN)CCSCC[C@@H](C(=O)N2CCC[C@H]2C(=O)NCC(=O)O)NC(=O)[C@H](CC(C)C)NC(=O)[C@H](CCCCN)NC(=O)CNC(=O)[C@H](CC(C)C)NC(=O)[C@H](C(C)C)NC(=O)CNC1=O [2G3-EETE]
ring closure, yield after HPLC ([1]; from H-Gly-Pro-Abu(4-Cl)-Leu-Gly-Val-Leu-Gly-Lys-Leu-Hcy-Pro-Gly-OH, 30-membered ring, Na2CO3 (1 mg/mL, pH 10.5), ACN/H2O 1:1, 25.0 °C): 75%

CC(C)C[C@@H]1NC(=O)[C@@H](NC(=O)[C@@H]2CCCN2C(=O)CNC(=O)[C@H](C)NC(=O)OCC2c3ccccc3-c3ccccc32)CCSC[C@@H](C(=O)N2CCC[C@H]2C(=O)NCC(=O)O)NC(=O)[C@H](CC(C)C)NC(=O)[C@H](CCCCN)NC(=O)CNC(=O)[C@H](CC(C)C)NC(=O)[C@H](C(C)C)NC(=O)CNC1=O [3G3-EMTE]
ring closure, yield after HPLC ([1]; from Fmoc-Ala-Gly-Pro-Abu(4-Cl)-Leu-Gly-Val-Leu-Gly-Lys-Leu-Cys-Pro-Gly-OH, 29-membered ring, Na2CO3 (1 mg/mL, pH 10.5), ACN/H2O 1:1, 0.63 mM, 25.0 °C, 2 steps): 33%

CC(C)C[C@@H]1NC(=O)[C@@H](NC(=O)[C@@H]2CCCN2C(=O)CN)CSC[C@@H](C(=O)N2CCC[C@H]2C(=O)NCC(=O)O)NC(=O)[C@H](CC(C)C)NC(=O)[C@H](CCCCN)NC(=O)CNC(=O)[C@H](CC(C)C)NC(=O)[C@H](C(C)C)NC(=O)CNC1=O [2G3-MMTE]
ring closure, yield after HPLC ([1]; from H-Gly-Pro-Ala(3-Cl)-Leu-Gly-Val-Leu-Gly-Lys-Leu-Cys-Pro-Gly-OH, 28-membered ring, Na2CO3 (1 mg/mL, pH 10.5), ACN/H2O 1:1, 25.0 °C): 87%

CC(C)C[C@@H]1NC(=O)[C@H](CCCCN)NC(=O)CNC(=O)[C@H](CC(C)C)NC(=O)[C@H](C(C)C)NC(=O)CNC(=O)[C@H](CC(C)C)NC(=O)[C@@H](N)CSC[C@@H](C(N)=O)NC1=O [G3-MMTE]
ring closure, yield after HPLC ([1]; from H-Ala(3-Cl)-Leu-Gly-Val-Leu-Gly-Lys-Leu-Cys-NH2, 28-membered ring, Na2CO3 (1 mg/mL, pH 10.5), ACN/H2O 1:1, 25.0 °C): 49%

CC(C)C[C@@H]1NC(=O)[C@@H](NC(=O)[C@@H]2CCCN2C(=O)CNC(=O)[C@H](C)NC(=O)OCC2c3ccccc3-c3ccccc32)CCSC[C@@H](C(=O)N2CCC[C@H]2C(=O)NCC(=O)O)NC(=O)[C@H](CC(C)C)NC(=O)[C@H](CCCCN)NC(=O)CNC(=O)[C@H](CC(C)C)NC(=O)[C@H](C(C)C)NC(=O)CNC1=O [N^α -Fmoc-3G3-EMTE]
ring closure, yield after HPLC ([1]; from Fmoc-Ala-Gly-Pro-Abu(4-Cl)-Leu-Gly-Val-Leu-Gly-Lys-Leu-Cys-Pro-Gly-OH, 29-membered ring, Na2CO3 (1 mg/mL, pH 10.5), ACN/H2O 1:1, 0.63 mM, 25.0 °C): 19%

CC(C)C[C@@H]1NC(=O)[C@@H](NC(=O)[C@@H]2CCCN2C(=O)CNC(=O)[C@H](C)N)CSC[C@@H](C(=O)N2CCC[C@H]2C(=O)NCC(=O)O)NC(=O)[C@H](CC(C)C)NC(=O)[C@H](CCCCN)NC(=O)CNC(=O)[C@H](CC(C)C)NC(=O)[C@H](C(C)C)NC(=O)CNC1=O [3G3-MMTE]
ring closure, yield after HPLC ([1]; from H-Ala-Gly-Pro-Ala(3-Cl)-Leu-Gly-Val-Leu-Gly-Lys-Leu-Cys-Pro-Gly-OH, 28-membered ring, Na2CO3 (1 mg/mL, pH 10.5), ACN/H2O 1:1, 25.0 °C): 89%

CC(C)C[C@@H]1NC(=O)[C@@H](NC(=O)[C@@H]2CCCN2C(=O)CN)CCSC[C@@H](C(=O)N2CCC[C@H]2C(=O)NCC(=O)O)NC(=O)[C@H](CC(C)C)NC(=O)[C@H](CCCCN)NC(=O)CNC(=O)[C@H](CC(C)C)NC(=O)[C@H](C(C)C)NC(=O)CNC1=O [2G3-EMTE]
ring closure, yield after HPLC ([1]; from H-Gly-Pro-Abu(4-Cl)-Leu-Gly-Val-Leu-Gly-Lys-Leu-Cys-Pro-Gly-OH, 29-membered ring, Na2CO3 (1 mg/mL, pH 10.5), ACN/H2O 1:1, 25.0 °C): 84%

CC[C@H](C)[C@@H]1NC(=O)[C@H](CC(C)C)NC(=O)[C@@H](NC(=O)[C@@H]2CCCN2C(=O)CN)CSC[C@@H](C(N)=O)NC(=O)[C@H](CCCNC(=N)N)NC(=O)[C@H](CC(=O)O)NC(=O)[C@@H]2CCCN2C(=O)[C@H](C)NC(=O)[C@H](CC(C)C)NC1=O [CB10-MMTE]
ring closure, yield after HPLC ([1]; from H-Gly-Pro-Ala(3-Br)-Leu-Ile-Leu-Ala-Pro-Asp-Arg-Cys-NH2, 28-membered ring, Na2CO3 (pH 10.5), H2O, 0.15 mM): 27%

CC(C)C[C@@H]1NC(=O)[C@@H](NC(=O)[C@@H]2CCCN2C(=O)CN)CSCC[C@@H](C(=O)N2CCC[C@H]2C(=O)NCC(=O)O)NC(=O)[C@H](CC(C)C)NC(=O)[C@H](CCCCN)NC(=O)CNC(=O)[C@H](CC(C)C)NC(=O)[C@H](C(C)C)NC(=O)CNC1=O [2G3-METE]
ring closure, yield after HPLC ([1]; from H-Gly-Pro-Cys-Leu-Gly-Val-Leu-Gly-Lys-Leu-Abu(4-Cl)-Pro-Gly-OH, 29-membered ring, Na2CO3 (1 mg/mL, pH 10.5), ACN/H2O 1:1, 25.0 °C): 36%

CC(C)C[C@@H]1NC(=O)[C@@H](NC(=O)[C@@H]2CCCN2C(=O)CN)CSCC[C@@H](C(=O)N2CCC[C@H]2C(=O)NCC(=O)O)NC(=O)[C@H](CC(C)C)NC(=O)[C@H](CCCCN)NC(=O)CNC(=O)[C@H](CC(C)C)NC(=O)[C@H](C(C)C)NC(=O)CNC1=O [l-2G3-METE]
ring closure, yield after HPLC [1, 3]: 29%
